Three compounds from US6608032B1, “Medicinal compositions” (Takara Shuzo Co., Ltd., priority 1999, dated 2003) can be followed below.

Assay [1] has as its system RAW264.7 cells. As to the kind of experiment: NO production induced by LPS and IFN-γ in RAW264.7 cells (NO2− in medium, Griess). To be noted: 10 μl of 5 mM oligosaccharide solution per 500 μl well, added 0.5 or 5 hours before LPS and IFN-γ; 12 hours; FIG. 1. The assay is classed as cell-based. The protocol:
RAW264.7 cells (ATCC TIB 71) were suspended in Dulbecco's modified Eagle's medium (Bio Whittaker, 12-917F) without Phenol Red containing 10% fetal calf serum and 2 mM L-glutamine (Life Technologies Oriental, Code. 25030-149) at a concentration of 3×10^5 cells/ml. 500 μl of the suspension was added to each well of a 48-well microtiter plate and the plate was incubated at 37° C. for 6 hours in the presence of 5% CO2. 10 μl of a filter-sterilized oligosaccharide solution containing agarobiose, agarotetraose or agarohexaose prepared in Referential Example 1 at a concentration of 5 mM in water was added to the well. The plate was incubated for additional 0.5 or 5 hours. 10 μl of aqueous solution containing lipopolysaccharide (LPS, Sigma, Code. L-2012) at a concentration of 5 μg/ml and interferon-γ (IFN-γ, sold by Cosmobio, Code. GZM-MG-IFN) at a concentration of 2000 U/ml was added to the well. The plate was incubated for additional 12 hours. The concentration of […] resulting from oxidation of NO in the medium was then measured.
As control groups, a group to which LPS or IFN-γ was not added and a group to which agarobiose, agarotetraose or agarohexaose was not added were provided.
After cultivation, 100 μl of 4% Griess' reagent (Sigma, Code. G4410) was added to 100 μl of the culture supernatant, and the mixture was allowed to stand for 15 minutes at room temperature. The absorbance at 490 nm was then measured. NO2^− concentration in the medium was calculated with reference to a calibration curve prepared by using NaNO2 dissolved in the same medium at a predetermined concentration. All of the measurements were carried out in triplicate.

Assay [2] has as its system HL-60 Nu cells. As to the kind of experiment: TPA-induced intracellular peroxides in HL-60 Nu (neutrophil-like) cells. The format is cell-based. To be noted: 50 μl of 5 mM solution, 2 hours before TPA; 5 hours; FIG. 2. The protocol: HL-60 cells were added to RPMI 1640 medium (Bio Whittaker, Code. 12-702F) containing 10% fetal calf serum and 1.3% dimethyl sulfoxide (Dojindo Laboratories, Code. 346-03615) and cultured at 37° C. for 1 week in the presence of 5% CO2 to prepare cells differentiated into neutrophil-like cells (hereinafter referred to as HL-60 Nu).
Agarobiose, agarotetraose or agarohexaose obtained in Referential Example 1 was dissolved in water at a concentration of 5 mM. The solution was sterilized by filtration. HL-60 Nu cells were suspended in RPMI 1640 medium containing 10% fetal calf serum at a concentration of 2.5×10^5 cells/2.4 ml. 50 μl of one of the oligosaccharide aqueous solutions was added to a well containing the cells. The cells were cultured at 37° C. for 2 hours in the presence of 5% CO2. Then, 50 μl of a solution containing phorbol 12-myristate 13-acetate (TPA, Gibco, Code. 13139-019) at a concentration of 5 mg/ml in water was added the well. After the cells were cultured for additional 5 hours, intracellular peroxides were determined. As control groups, a group to which TPA was not added and a group to which agarobiose, agarotetraose or agarohexaose as not added were provided.
After cultivation, 10 μl of a solution containing 2′,7′-dichlorofluorescein diacetate (Sigma, Code. D6833) at a concentration of 5 mM in dimethyl sulfoxide was added to the well. The cells were cultured for additional 30 minutes. The cells were then collected by centrifugation and washed twice in phosphate buffered saline. 2′, 7′-dichlorofluorescein, which is generated in proportion to the amount of intracellular peroxides, was determined using FACScan as described in Saibo Kogaku, Bessatsu (Cell Technology, Suppl.) Jikken Protocol Series: Kassei Sanso Jikken Protocol (Experimental Protocol Series: Experimental Protocols for Active Oxigen) (1994, Shujun-sha) pp. 51-54.

The subject of assay [3] is RAW264.7 cells. The assay is described as follows: LPS-induced prostaglandin E2 production in RAW264.7 cells. The format is cell-based. The following applies: 10 μl of 5 mM solution per 500 μl well, 0.5 or 5 hours before LPS; 12 hours; FIG. 3. As to the method:
RAW264.7 cells (ATCC TIB 71) were suspended in Dulbecco's modified Eagle's medium (Bio Whittaker, Code. 12-604F) containing 10% fetal calf serum at a concentration of 3×10^5 cells/ml. 500 μl of the suspension was added to each well of a 48-well microtiter plate and the plate was incubated at 37° C. for 6 hours in the presence of 5% CO2. 10 μl of a filter-sterilized agarooligosaccharide solution containing agarobiose, agarotetraose or agarohexaose prepared in Referential Example 1 at a concentration of 5 mM in water was added to the well. The plate was incubated for additional 0.5 or 5 hours. 10 μl of 50 μg/ml LPS aqueous solution was then added to the well. After the plate was incubated for additional 12 hours, the amount of prostaglandin E2 was measured. As control groups, a group to which LPS was not added and a group to which agarobiose, agarotetraose or agarohexaose was not added were provided.
After cultivation, the amount of prostaglandin E2 in the culture supernatant was measured using Prostaglandin E2 ELISA Kit (Neogen, Code. 404110). All of the measurements were carried out in triplicate.

Assay [4] deals with α-glucosidase. The assay is described as follows: α-glucosidase inhibition with p-nitrophenyl-α-D-glucopyranoside. The format is biochemical, S. cerevisiae. As to the method: (1) An α-glucosidase activity was measured by allowing α-glucosidase to act on p-nitrophenyl-α-D-glucopyranoside (a chromogenic substrate) and calorimetrically quantifying 4-nitrophenol released by hydrolysis.
10 μl of α-glucosidase solution [40 mU/ml, derived from S. cerevisiae, Sigma, dissolved in 10 mM phosphate buffer (pH 7.2 at 37° C.)] and 10 μl of a solution containing a test sample dissolved in 10 mM phosphate buffer (pH 7.2 at 37° C.) were mixed. 80 μl of a 1.5 mg/ml substrate solution [Sigma, dissolved in 10 mM phosphate buffer (pH 7.2 at 37° C.)] was added thereto to initiate the reaction. After reacting at 37° C. for 40 minutes, the absorbance at 410 nm was measured using Shimadzu uv2200. The remaining activity therein was calculated defining the activity observed without the addition of test sample as 100%.
Agarobiose, agarotetraose, agarohexaose and agarooctaose used as test samples were those prepared in Referential Example 1. Commercially available products of anhydrogalactose (Funakoshi), neoagarobiose (Sigma), neoagarotetraose (Funakoshi) and neoagarohexaose (Funakoshi) were used.

Regarding `OC[C@H]1O[C@@H](O[C@H]2[C@H]3OC[C@@H]2OC(O)[C@H]3O)[C@H](O)[C@@H](O)[C@H]1O` (mixture of isomers) [Agarobiose, agarobiose], in assay [1], the “NO production induced by LPS and IFN-γ” value is “inhibited NO production induced by LPS and IFN-γ”. Further, the “TPA-induced generation of intracellular peroxides” value (from here on “TPA-induced generation”) in assay [2] was “Slight inhibition”. Further, the “prostaglandin E2 production induced by LPS” value in assay [3] is recorded as “inhibited the prostaglandin E2 production induced by LPS”. In addition, the “Activity of inhibiting α-glucosidase (% remaining activity)” value in assay [4] (5 μM), in assay [4] (50 μM), in assay [4] (500 μM), in assay [4] (1000 μM) and in assay [4] (5000 μM) was 100% in each case.
On to `OCC1OC(OC2C3COC2C(O)C(OC2C(O)C(CO)OC(OC4C5COC4C(O)C(OC4C(O)C(CO)OC(OC6C7COC6C(O)C(O)O7)C4O)O5)C2O)O3)C(O)C(O)C1O` (stereo not drawn) [Agarohexaose, agarohexaose], for which, in assay [1], the “NO production induced by LPS and IFN-γ” value was “inhibited NO production induced by LPS and IFN-γ”. Besides, in assay [2], the “TPA-induced generation” value was “inhibition of TPA-induced generation of intracellular peroxides was observed”. Moreover, in assay [3], the “prostaglandin E2 production induced by LPS” value is on record as “inhibited the prostaglandin E2 production induced by LPS”. For the same compound, the “Activity of inhibiting α-glucosidase (% remaining activity)” value in assay [4] (5 μM) is recorded as 91%; in assay [4] (50 μM) it was 91%; in assay [4] (500 μM) it was 47%; in assay [4] (1000 μM), 35%; in assay [4] (5000 μM) it was 7%.
For `OCC1OC(OC2C3COC2C(O)C(OC2C(O)C(CO)OC(OC4C5COC4C(O)C(O)O5)C2O)O3)C(O)C(O)C1O` (stereo not drawn) [Agarotetraose, agarotetraose], the “NO production induced by LPS and IFN-γ” value in assay [1] was “inhibited NO production induced by LPS and IFN-γ”. Besides, the “TPA-induced generation” value in assay [2] is recorded as “Slight inhibition”. Besides, the “prostaglandin E2 production induced by LPS” value in assay [3] was “inhibited the prostaglandin E2 production induced by LPS”. Moreover, the “Activity of inhibiting α-glucosidase (% remaining activity)” value in assay [4] (5 μM) amounted to 100%; in assay [4] (50 μM), 97%; in assay [4] (500 μM) it was 75%; in assay [4] (1000 μM), 32%; in assay [4] (5000 μM) it was 20%.
